{"source": "ChEMBL document CHEMBL4630905", "about": "(2021)", "key": {"[1]": {"target": "5-hydroxytryptamine receptor 1D (Homo sapiens) (UniProt P28221)", "conditions": "Compound concentration 10.0 uM"}, "[2]": {"target": "Histamine H1 receptor (Homo sapiens) (UniProt P35367)", "conditions": "Compound concentration 10.0 uM"}, "[3]": {"target": "D(1A) dopamine receptor (Homo sapiens) (UniProt P21728)", "conditions": "Compound concentration 10.0 uM"}, "[4]": {"target": "Beta-2 adrenergic receptor (Homo sapiens) (UniProt P07550)", "sequence (P07550 whole entry, looked up)": "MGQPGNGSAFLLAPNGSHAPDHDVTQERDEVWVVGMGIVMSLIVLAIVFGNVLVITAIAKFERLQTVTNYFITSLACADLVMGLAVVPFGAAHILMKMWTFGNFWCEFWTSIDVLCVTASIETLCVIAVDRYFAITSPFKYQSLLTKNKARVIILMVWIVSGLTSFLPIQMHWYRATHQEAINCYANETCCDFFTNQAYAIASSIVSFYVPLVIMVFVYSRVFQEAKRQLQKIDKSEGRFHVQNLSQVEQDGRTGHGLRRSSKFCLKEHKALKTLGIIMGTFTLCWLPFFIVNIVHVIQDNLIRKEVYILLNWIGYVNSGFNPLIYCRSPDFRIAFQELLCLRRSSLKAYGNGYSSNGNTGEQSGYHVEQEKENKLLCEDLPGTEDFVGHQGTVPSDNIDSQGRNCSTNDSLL", "conditions": "Compound concentration 10.0 uM"}, "[5]": {"target": "Sodium-dependent noradrenaline transporter (Homo sapiens) (UniProt P23975)", "sequence (P23975 whole entry)": "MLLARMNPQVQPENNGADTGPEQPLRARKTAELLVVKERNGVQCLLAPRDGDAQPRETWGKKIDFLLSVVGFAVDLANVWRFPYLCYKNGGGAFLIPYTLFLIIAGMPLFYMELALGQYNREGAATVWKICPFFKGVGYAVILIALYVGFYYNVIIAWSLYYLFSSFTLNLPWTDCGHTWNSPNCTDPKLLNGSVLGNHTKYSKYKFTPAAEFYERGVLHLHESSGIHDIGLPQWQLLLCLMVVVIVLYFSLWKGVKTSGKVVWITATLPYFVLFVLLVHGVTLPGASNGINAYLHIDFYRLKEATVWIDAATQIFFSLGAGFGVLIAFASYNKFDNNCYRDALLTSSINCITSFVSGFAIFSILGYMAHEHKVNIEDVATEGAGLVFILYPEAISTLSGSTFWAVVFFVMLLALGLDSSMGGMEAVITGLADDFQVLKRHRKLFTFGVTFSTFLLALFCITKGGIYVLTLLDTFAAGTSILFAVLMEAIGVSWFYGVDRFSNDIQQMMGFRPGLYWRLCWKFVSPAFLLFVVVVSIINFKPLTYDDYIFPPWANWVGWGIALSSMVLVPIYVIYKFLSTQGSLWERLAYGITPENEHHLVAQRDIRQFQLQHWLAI", "conditions": "Compound concentration 10.0 uM"}, "[6]": {"target": "T1, Bromodomain-containing protein 2 (Homo sapiens, UniProt P25440)", "T1 sequence (P25440 whole entry, looked up, change not shown)": "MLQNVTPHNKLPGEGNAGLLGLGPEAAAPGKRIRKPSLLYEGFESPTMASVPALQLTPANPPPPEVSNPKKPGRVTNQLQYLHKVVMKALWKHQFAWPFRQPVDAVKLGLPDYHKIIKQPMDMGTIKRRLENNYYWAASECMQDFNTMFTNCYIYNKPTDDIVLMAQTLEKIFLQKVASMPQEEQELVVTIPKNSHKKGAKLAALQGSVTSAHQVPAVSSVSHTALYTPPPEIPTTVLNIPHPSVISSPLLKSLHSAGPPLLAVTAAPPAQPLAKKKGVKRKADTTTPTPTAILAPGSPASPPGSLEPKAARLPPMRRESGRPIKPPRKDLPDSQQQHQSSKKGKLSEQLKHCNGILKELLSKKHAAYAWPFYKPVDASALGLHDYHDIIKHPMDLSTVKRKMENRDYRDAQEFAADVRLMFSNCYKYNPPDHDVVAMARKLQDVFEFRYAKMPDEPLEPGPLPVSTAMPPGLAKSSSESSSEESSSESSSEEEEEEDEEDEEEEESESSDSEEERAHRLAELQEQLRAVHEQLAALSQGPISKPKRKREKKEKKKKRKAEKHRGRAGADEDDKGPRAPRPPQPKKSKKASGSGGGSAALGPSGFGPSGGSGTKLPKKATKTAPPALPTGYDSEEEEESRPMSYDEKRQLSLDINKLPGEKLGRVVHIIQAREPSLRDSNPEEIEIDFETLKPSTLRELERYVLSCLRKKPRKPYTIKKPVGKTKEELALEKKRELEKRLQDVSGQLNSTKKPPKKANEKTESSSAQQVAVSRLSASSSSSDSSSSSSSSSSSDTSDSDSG", "assay": "BET mutant TR-FRET assay (BRD2 BD2)"}, "[7]": {"target": "T1, Bromodomain-containing protein 2", "assay": "BET mutant TR-FRET assay (BRD2 BD1)"}, "[8]": {"target": "5-hydroxytryptamine receptor 1E (Homo sapiens) (UniProt P28566)", "conditions": "Compound concentration 10.0 uM"}, "[9]": {"target": "5-hydroxytryptamine receptor 1A (Homo sapiens) (UniProt P08908)", "sequence (P08908 whole entry)": "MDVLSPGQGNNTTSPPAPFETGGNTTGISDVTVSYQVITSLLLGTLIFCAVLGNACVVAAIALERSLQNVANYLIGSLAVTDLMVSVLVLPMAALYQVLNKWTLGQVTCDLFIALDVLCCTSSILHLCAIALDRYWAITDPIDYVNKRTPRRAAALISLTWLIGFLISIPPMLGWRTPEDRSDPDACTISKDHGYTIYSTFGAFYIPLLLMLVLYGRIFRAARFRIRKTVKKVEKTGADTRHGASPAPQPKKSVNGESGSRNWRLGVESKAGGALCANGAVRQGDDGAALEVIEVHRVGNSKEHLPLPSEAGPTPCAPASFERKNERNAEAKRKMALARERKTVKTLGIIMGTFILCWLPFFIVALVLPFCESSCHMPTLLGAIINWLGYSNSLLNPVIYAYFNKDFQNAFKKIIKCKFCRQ", "conditions": "Compound concentration 10.0 uM"}, "[10]": {"target": "Sodium-dependent serotonin transporter (Homo sapiens) (UniProt P31645)", "sequence (P31645 whole entry, looked up)": "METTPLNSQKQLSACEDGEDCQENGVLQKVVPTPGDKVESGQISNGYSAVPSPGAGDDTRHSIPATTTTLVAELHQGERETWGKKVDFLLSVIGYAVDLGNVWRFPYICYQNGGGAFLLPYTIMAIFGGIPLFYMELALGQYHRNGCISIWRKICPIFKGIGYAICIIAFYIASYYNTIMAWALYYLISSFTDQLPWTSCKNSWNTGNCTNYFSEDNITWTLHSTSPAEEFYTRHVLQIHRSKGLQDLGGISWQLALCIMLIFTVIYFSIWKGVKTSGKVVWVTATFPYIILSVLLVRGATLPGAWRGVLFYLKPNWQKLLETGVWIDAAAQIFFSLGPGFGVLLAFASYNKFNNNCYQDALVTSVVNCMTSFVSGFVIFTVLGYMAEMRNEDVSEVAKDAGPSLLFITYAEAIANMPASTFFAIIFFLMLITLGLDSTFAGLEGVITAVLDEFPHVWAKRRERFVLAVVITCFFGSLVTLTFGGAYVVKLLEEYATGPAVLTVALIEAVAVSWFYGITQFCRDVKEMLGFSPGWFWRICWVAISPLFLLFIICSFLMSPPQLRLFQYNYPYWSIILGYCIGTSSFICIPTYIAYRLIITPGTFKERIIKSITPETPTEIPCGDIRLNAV", "conditions": "Compound concentration 10.0 uM"}, "[11]": {"target": "5-hydroxytryptamine receptor 2A (Homo sapiens) (UniProt P28223)", "conditions": "Compound concentration 10.0 uM"}, "[12]": {"target": "5-hydroxytryptamine receptor 5A (Homo sapiens) (UniProt P47898)", "conditions": "Compound concentration 10.0 uM"}, "Rattus norvegicus": {"species": "Rattus norvegicus", "conditions": "Compound concentration 10.0 uM"}, "[13]": {"target": "Histamine H3 receptor (Homo sapiens) (UniProt Q9Y5N1)", "conditions": "Compound concentration 10.0 uM"}, "[14]": {"target": "Sodium-dependent dopamine transporter (Homo sapiens) (UniProt Q01959)", "conditions": "Compound concentration 10.0 uM"}, "[15]": {"target": "T2, Bromodomain testis-specific protein (Homo sapiens, UniProt Q58F21)", "assay": "BET mutant TR-FRET assay (BRDT BD2)"}, "[16]": {"target": "D(1B) dopamine receptor (Homo sapiens) (UniProt P21918)", "sequence (P21918 whole entry)": "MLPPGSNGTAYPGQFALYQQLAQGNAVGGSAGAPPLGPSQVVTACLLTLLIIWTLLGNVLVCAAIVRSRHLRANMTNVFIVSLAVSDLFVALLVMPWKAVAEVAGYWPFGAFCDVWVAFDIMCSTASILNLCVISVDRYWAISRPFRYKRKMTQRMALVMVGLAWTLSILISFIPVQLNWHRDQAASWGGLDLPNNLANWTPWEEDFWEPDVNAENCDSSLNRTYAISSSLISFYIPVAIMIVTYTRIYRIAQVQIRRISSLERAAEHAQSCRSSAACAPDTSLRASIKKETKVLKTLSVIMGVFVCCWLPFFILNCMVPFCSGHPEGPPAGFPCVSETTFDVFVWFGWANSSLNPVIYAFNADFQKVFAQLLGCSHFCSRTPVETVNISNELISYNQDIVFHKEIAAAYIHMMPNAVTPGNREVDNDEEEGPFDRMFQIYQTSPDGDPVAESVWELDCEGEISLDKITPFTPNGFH", "conditions": "Compound concentration 10.0 uM"}, "[17]": {"target": "Muscarinic acetylcholine receptor M2 (Homo sapiens) (UniProt P08172)", "conditions": "Compound concentration 10.0 uM"}, "[18]": {"target": "5-hydroxytryptamine receptor 2C (Homo sapiens) (UniProt P28335)", "conditions": "Compound concentration 10.0 uM"}, "[19]": {"target": "Alpha-2A adrenergic receptor (Homo sapiens) (UniProt P08913)", "conditions": "Compound concentration 10.0 uM"}, "[20]": {"target": "Muscarinic acetylcholine receptor M3 (Homo sapiens) (UniProt P20309)", "conditions": "Compound concentration 10.0 uM"}, "[21]": {"target": "T3, Bromodomain-containing protein 3 (Homo sapiens, UniProt Q15059)", "T3 sequence (Q15059 2-726 limits assumed, change not shown)": "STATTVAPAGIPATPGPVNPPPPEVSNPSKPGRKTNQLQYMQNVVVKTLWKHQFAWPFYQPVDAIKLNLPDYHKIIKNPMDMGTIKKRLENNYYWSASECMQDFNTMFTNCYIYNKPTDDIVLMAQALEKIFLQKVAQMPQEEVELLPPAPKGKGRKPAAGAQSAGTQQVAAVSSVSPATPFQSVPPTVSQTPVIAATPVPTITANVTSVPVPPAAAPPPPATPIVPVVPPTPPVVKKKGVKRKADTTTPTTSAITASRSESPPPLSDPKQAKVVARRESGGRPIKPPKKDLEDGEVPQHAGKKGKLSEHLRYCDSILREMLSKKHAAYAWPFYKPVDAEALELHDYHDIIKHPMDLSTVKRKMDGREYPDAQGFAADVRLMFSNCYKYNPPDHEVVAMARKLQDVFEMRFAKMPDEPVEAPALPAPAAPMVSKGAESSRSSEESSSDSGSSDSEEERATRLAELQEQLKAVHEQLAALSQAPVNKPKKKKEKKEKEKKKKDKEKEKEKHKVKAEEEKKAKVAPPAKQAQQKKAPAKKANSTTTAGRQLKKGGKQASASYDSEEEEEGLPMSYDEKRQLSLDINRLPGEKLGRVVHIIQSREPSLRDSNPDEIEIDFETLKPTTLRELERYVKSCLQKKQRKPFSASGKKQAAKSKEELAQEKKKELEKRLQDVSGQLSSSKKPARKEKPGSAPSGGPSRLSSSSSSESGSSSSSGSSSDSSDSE", "assay": "BET mutant TR-FRET assay (BRD3 BD2)"}, "[22]": {"target": "T3, Bromodomain-containing protein 3", "assay": "BET mutant TR-FRETassay (BRD3 BD1)"}, "[23]": {"target": "D(4) dopamine receptor (Homo sapiens) (UniProt P21917)", "conditions": "Compound concentration 10.0 uM"}, "[24]": {"target": "T4, GABA-A receptor; anion channel (Rattus norvegicus) (UniProt O09028+P15431+P18506+P18508+P19969+P20236+P23574+P23576+P28471+P28473+P30191+P62813+P63079+P63138+Q91ZM7+Q9ES14)", "conditions": "Compound concentration 10.0 uM"}, "[25]": {"target": "Beta-1 adrenergic receptor (Homo sapiens) (UniProt P08588)", "conditions": "Compound concentration 10.0 uM"}, "[26]": {"target": "Alpha-1A adrenergic receptor (Homo sapiens) (UniProt P35348)", "conditions": "Compound concentration 10.0 uM"}, "[27]": {"target": "GABA-A receptor; anion channel", "assay": "GPCRScan assay: inhibition of GABAA/BZP", "format": "protein-complex assay, Rattus norvegicus", "set-up": "radioligand conc. used [nm] 0.6 – 4.0, parental cells brain tissue"}, "[28]": {"target": "D(3) dopamine receptor (Homo sapiens) (UniProt P35462)", "conditions": "Compound concentration 10.0 uM"}, "[29]": {"target": "Alpha-1B adrenergic receptor (Homo sapiens) (UniProt P35368)", "conditions": "Compound concentration 10.0 uM"}, "[30]": {"target": "T2, Bromodomain testis-specific protein", "assay": "BET mutant TR-FRET assay (BRDT BD1)"}, "[31]": {"target": "Alpha-1D adrenergic receptor (Homo sapiens) (UniProt P25100)", "conditions": "Compound concentration 10.0 uM"}, "[32]": {"target": "Histamine H2 receptor (Homo sapiens) (UniProt P25021)", "conditions": "Compound concentration 10.0 uM"}, "[33]": {"target": "5-hydroxytryptamine receptor 3A (Homo sapiens) (UniProt P46098)", "conditions": "Compound concentration 10.0 uM"}, "[34]": {"target": "Muscarinic acetylcholine receptor M1 (Homo sapiens) (UniProt P11229)", "conditions": "Compound concentration 10.0 uM"}, "[35]": {"target": "Sigma intracellular receptor 2 (Homo sapiens) (UniProt Q5BJF2)", "conditions": "Compound concentration 10.0 uM"}, "[36]": {"target": "Muscarinic acetylcholine receptor M5 (Homo sapiens) (UniProt P08912)", "sequence (P08912 whole entry)": "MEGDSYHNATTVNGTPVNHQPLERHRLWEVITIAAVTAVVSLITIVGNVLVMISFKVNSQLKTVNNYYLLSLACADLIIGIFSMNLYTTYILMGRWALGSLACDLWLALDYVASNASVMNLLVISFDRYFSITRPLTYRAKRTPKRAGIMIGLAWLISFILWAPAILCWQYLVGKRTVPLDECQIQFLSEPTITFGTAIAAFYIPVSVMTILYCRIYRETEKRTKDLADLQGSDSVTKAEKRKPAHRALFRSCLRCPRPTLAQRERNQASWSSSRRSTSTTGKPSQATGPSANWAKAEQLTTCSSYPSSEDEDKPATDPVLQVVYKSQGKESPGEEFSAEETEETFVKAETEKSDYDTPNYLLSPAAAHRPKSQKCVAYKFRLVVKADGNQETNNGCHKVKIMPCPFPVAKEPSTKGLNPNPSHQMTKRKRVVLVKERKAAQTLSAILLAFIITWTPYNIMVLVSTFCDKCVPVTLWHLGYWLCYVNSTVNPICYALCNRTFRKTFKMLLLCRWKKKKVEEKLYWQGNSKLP", "conditions": "Compound concentration 10.0 uM"}, "[37]": {"target": "Alpha-2C adrenergic receptor (Homo sapiens) (UniProt P18825)", "conditions": "Compound concentration 10.0 uM"}, "[38]": {"target": "Alpha-2B adrenergic receptor (Homo sapiens) (UniProt P18089)", "conditions": "Compound concentration 10.0 uM"}, "[39]": {"target": "T4, GABA-A receptor; anion channel (Rattus norvegicus)", "conditions": "Compound concentration 10.0 uM", "remark": "listed apart in the source"}, "[40]": {"target": "Beta-3 adrenergic receptor (Homo sapiens) (UniProt P13945)", "sequence (P13945 whole entry, looked up)": "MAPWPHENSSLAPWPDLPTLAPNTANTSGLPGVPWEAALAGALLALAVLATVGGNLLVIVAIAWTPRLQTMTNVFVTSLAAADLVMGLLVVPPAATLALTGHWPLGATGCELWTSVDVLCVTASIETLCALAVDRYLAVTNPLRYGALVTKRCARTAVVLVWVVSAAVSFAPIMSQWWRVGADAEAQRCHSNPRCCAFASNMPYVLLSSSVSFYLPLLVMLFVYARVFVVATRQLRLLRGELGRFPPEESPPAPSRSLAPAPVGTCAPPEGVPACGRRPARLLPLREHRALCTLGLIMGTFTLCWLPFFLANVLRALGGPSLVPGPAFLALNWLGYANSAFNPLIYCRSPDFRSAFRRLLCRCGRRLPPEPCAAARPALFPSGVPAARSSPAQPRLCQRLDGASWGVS", "conditions": "Compound concentration 10.0 uM"}, "[41]": {"target": "5-hydroxytryptamine receptor 1B (Homo sapiens) (UniProt P28222)", "conditions": "Compound concentration 10.0 uM"}, "[42]": {"target": "Muscarinic acetylcholine receptor M4 (Homo sapiens) (UniProt P08173)", "conditions": "Compound concentration 10.0 uM"}}, "data": [{"smiles": "Cc1cc2c(-c3ccco3)cnc(N[C@H]3CCN(C)C[C@@H]3C(=O)NC3CCCCC3)c2[nH]c1=O", "note": "[GSK791]", "values": [{"measurement": "inhibition", "setting": "[1]", "value": 33.1, "unit": "%"}, {"measurement": "inhibition", "setting": "[2]", "value": 11.7, "unit": "%"}, {"measurement": "inhibition", "setting": "[3]", "value": 21.2, "unit": "%"}, {"measurement": "inhibition", "setting": "[4]", "value": 4.04, "unit": "%"}, {"measurement": "inhibition", "setting": "[5]", "value": 32.4, "unit": "%"}, {"measurement": "pIC50", "setting": "[6]", "value": 4.8}, {"measurement": "pIC50", "setting": "[7]", "value": 5.6}, {"measurement": "inhibition", "setting": "[8]", "value": 9.79, "unit": "%"}, {"measurement": "inhibition", "setting": "[9]", "value": 16.9, "unit": "%"}, {"measurement": "inhibition", "setting": "[10]", "value": 13.8, "unit": "%"}, {"measurement": "inhibition", "setting": "[11]", "value": 2.71, "unit": "%"}, {"measurement": "inhibition", "setting": "[12]", "value": 10.1, "unit": "%"}, {"measurement": "inhibition", "setting": "Rattus norvegicus", "value": -8.18, "unit": "%"}, {"measurement": "inhibition", "setting": "[13]", "value": -2.09, "unit": "%"}, {"measurement": "inhibition", "setting": "[14]", "value": 8.66, "unit": "%"}, {"measurement": "pIC50", "setting": "[15]", "value": 5.1}, {"measurement": "inhibition", "setting": "[16]", "value": 35.4, "unit": "%"}, {"measurement": "inhibition", "setting": "[17]", "value": 5.25, "unit": "%"}, {"measurement": "inhibition", "setting": "[18]", "value": 3.86, "unit": "%"}, {"measurement": "inhibition", "setting": "[19]", "value": 9.8, "unit": "%"}, {"measurement": "inhibition", "setting": "[20]", "value": 28.9, "unit": "%"}, {"measurement": "pIC50", "setting": "[21]", "value": 4.7}, {"measurement": "pIC50", "setting": "[22]", "value": 5.4}, {"measurement": "inhibition", "setting": "[23]", "value": 17.4, "unit": "%"}, {"measurement": "inhibition", "setting": "[24]", "value": 14.9, "unit": "%"}, {"measurement": "inhibition", "setting": "[25]", "value": 2.98, "unit": "%"}, {"measurement": "inhibition", "setting": "[26]", "value": 10.1, "unit": "%"}, {"measurement": "Ki", "setting": "[27]", "value": 2540, "unit": "nM"}, {"measurement": "inhibition", "setting": "[28]", "value": 15.5, "unit": "%"}, {"measurement": "inhibition", "setting": "[29]", "value": 1.98, "unit": "%"}, {"measurement": "pIC50", "setting": "[30]", "value": 5.2}, {"measurement": "inhibition", "setting": "[31]", "value": 7.87, "unit": "%"}, {"measurement": "inhibition", "setting": "[32]", "value": 21.6, "unit": "%"}, {"measurement": "inhibition", "setting": "[33]", "value": 1.04, "unit": "%"}, {"measurement": "inhibition", "setting": "[34]", "value": 12, "unit": "%"}, {"measurement": "inhibition", "setting": "[35]", "value": 44.1, "unit": "%"}, {"measurement": "inhibition", "setting": "[36]", "value": 7.44, "unit": "%"}, {"measurement": "inhibition", "setting": "[37]", "value": 10.8, "unit": "%"}, {"measurement": "inhibition", "setting": "[38]", "value": 28.5, "unit": "%"}, {"measurement": "inhibition", "setting": "[39]", "value": 86.3, "unit": "%"}, {"measurement": "inhibition", "setting": "[40]", "value": 35.1, "unit": "%"}, {"measurement": "inhibition", "setting": "[41]", "value": 1.93, "unit": "%"}, {"measurement": "inhibition", "setting": "[42]", "value": -3, "unit": "%"}]}]}
